According to patent publication US5571942A, “Ring-substituted 2-amino-1,2,3,4-tetrahydronaphthalenes and 3-aminochromanes” (Eli Lilly and Company, priority 1995, dated 1996):

Legend:
Design in all cases: species or system rat (male Sprague-Dawley)
5-HT1A receptors [1] = target: T1, 5-HT1A receptors (Rattus norvegicus, UniProt P19327); assay: in vitro binding: inhibition of 3H-8-OH-DPAT binding to synaptosomal membranes from rat cerebral cortex; details: 3H-8-OH-DPAT 2 nM, 37° C., 10 min, pH 7.4
T1 construct: from tissue; host or cells: cerebral cortex (crude synaptosomal membranes) of male Sprague-Dawley rats
T1 sequence (P19327 1-422): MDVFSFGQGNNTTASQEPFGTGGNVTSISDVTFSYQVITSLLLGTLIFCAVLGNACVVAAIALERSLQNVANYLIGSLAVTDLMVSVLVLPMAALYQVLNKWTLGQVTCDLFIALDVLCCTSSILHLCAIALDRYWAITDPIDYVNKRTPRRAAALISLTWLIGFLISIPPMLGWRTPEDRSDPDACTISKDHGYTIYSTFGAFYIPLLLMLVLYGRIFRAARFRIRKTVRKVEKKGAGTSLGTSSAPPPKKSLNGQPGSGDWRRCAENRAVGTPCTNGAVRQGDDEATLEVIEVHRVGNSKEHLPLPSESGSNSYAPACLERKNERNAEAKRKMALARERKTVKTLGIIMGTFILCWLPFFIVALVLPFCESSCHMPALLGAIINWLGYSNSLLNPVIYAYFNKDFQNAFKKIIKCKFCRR
Description: Sites specifically labeled by tritiated 8-hydroxy-2-dipropylamino-1,2,3,4-tetrahydronaphthalene (^3 H-8-OH-DPAT) have been identified as 5-HT1A receptors. This general procedure is set forth in Wong et al., J. Neural Transm. 71:207-218 (1988).
Male Sprague-Dawley rats (110-150 g) from Harlan Industries (Cumberland, Ind.) were fed a Purina Chow ad libitum for at least 3 days before being used in the studies. Rats were killed by decapitation. The brains were rapidly removed, and the cerebral cortices were dissected out at 4° C.
Brain tissues were homogenized in 0.32M sucrose. After centrifugation at 1000×g for 10 min and then at 17000×g for 20 min, a crude synaptosomal fraction was sedimented. The pellet was suspended in 100 vol of 50 mM Tris-HCl, pH 7.4, incubated at 37° C. for 10 min, and centrifuged at 50000×g for 10 min. The process was repeated and the final pellet was suspended in ice-chilled 50 mM Tris-HCl, pH 7.4.
Binding of ^3 H-8-OH-DPAT was performed according to the previously described method [Wong et al., J. Neural Transm. 64:251-269 (1985)]. Briefly, synaptosomal membranes isolated from cerebral cortex were incubated at 37° C. for 10 min. in 2 ml of 50 mM Tris-HCl, pH 7.4; 10 mM pargyline; 0.6 mM ascorbic acid; 5 mM CaCl2; 2 nM ^3 H-8-OH-DPAT and 0.1 to 1000 nm of the compound of interest. Binding was terminated by filtering samples under reduced pressure through glass fiber (GFB) filters. The filters were washed twice with 5 ml of ice cold buffer and placed in scintillation vials with 10 ml of PCS (Amersham/Searle) scintillation fluid. Radioactivity was measured with a liquid scintillation spectrometer. Unlabeled 8-OH-DPAT at 10 μM was also included in separate samples to establish non-specific binding. Specific binding of ^3 H-8-OH-DPAT is defined as the difference of radioactivity bound in the absence and in the presence of 10 μM unlabeled 8-OH-DPAT.
(§1) The results provided in columns 3-5 are indicative of 5-HT1A agonist activity.

5-HT1A receptors [2] = target: T1, 5-HT1A receptors; assay: in vivo lowering of brain 5-HIAA levels (5-HT1A agonist activity); details: one hour after treatment
Description: (§2) Compounds of this invention were also examined for their in vivo effects on brain 5-HIAA and serum corticosterone levels. Male Sprague-Dawley rats weighting 150-200 g were administered subcutaneously or orally with aqueous solutions of the test compound. One hour after treatment, the rats were decapitated and trunk blood collected. The blood was allowed to clot and then was centrifuged to separate the serum. The concentration of corticosterone in the serum was determined by the spectrofluorometric method of Solem, J. H.; Brinck-Johnsen, T., Scand. J. Clin. Invest. [Suppl. 80], 17, 1 (1965). The whole brains from the decapitated rats were quickly removed, frozen on dry ice, and stored at -15° C. 5-HIAA concentrations were measured by liquid chromatography with electrochemical detection as described by Fuller, R. W.; Snoddy, H. D.; Perry, K. W., Life Sci. 40, 1921 (1987).
as §1

5-HT1A receptors [3] = target: T1, 5-HT1A receptors; assay: in vivo elevation of serum corticosterone levels (5-HT1A agonist activity); details: sc, one hour after treatment
Description: as §2, §1

Row | Structure (SMILES) | IC50 (5-HT1A receptors [1]) | 5-HIAA MED (minimum effective dose lowering brain 5-HIAA levels) (5-HT1A receptors [2]; sc) | Corticosterone MED (minimum effective dose elevating serum corticosterone levels) (5-HT1A receptors [3]) | 5-HIAA MED (minimum effective dose lowering brain 5-HIAA levels) (5-HT1A receptors [2]; po)
1 | CCCN(CCC)C1CCc2cccc(-c3ccn(C)n3)c2C1 (stereo not shown) [5 (3-yl), 2-Di-n-propylamino-8-(1-methylpyrazol-3-yl)-1,2,3,4-tetrahydronaphthalene] | 5 nM | > 1.0 mg/kg | 1.0 mg/kg | 
2 | CCCN(CCC)C1CCc2cccc(-c3nccs3)c2C1 (stereo not shown) [Example 9, 2-Di-n-propylamino-8-(thiazol-2-yl)-1,2,3,4-tetrahydronaphthalene] | 12 nM | > 1.0 mg/kg | > 1.0 mg/kg | 
3 | CCCN(CCC)C1CCc2cccc(-c3cscn3)c2C1 (stereo not shown) [Example 11, 2-Di-n-propylamino-8-(thiazol-4-yl)-1,2,3,4-tetrahydronaphthalene] | 4.9 nM | > 1.0 mg/kg | > 1.0 mg/kg | 
4 | CCCN(CCC)C1CCc2cccc(-c3cccnc3)c2C1 (stereo not shown) [Example 14, 2-Di-n-propylamino-8-(pyrid-3-yl)-1,2,3,4-tetrahydronaphthalene] | 7.2 nM | > 1.0 mg/kg | > 1.0 mg/kg | 
5 | CCCN(CCC)C1CCc2cccc(-c3ccncc3)c2C1 (stereo not shown) [Example 16, 2-Di-n-propylamino-8-(pyrid-4-yl)-1,2,3,4-tetrahydronaphthalene] | 9.8 nM | > 1.0 mg/kg | > 1.0 mg/kg | 
6 | CCCN(CCC)C1CCc2cccc(-c3noc4ccccc34)c2C1 (stereo not shown) [Example 17, 2-Di-n-propylamino-8-(indoxazin-3-yl)-1,2,3,4-tetrahydronaphthalene] | 5 nM | > 1.0 mg/kg | > 1.0 mg/kg | 
7 | CCCN(CCC)C1CCc2cccc(-c3ccon3)c2C1 (stereo not shown) [Example 25] | 1.4 nM | 0.3 mg/kg | 0.3 mg/kg | 10 mg/kg
8 | CCCN(CCC)C1CCc2cccc(-c3nocc3C)c2C1 (stereo not shown) [Example 26, 2-Di-n-propylamino-8-(4-methylisoxazol-3-yl)-1,2,3,4-tetrahydronaphthalene] | 6.4 nM | 1.0 mg/kg | > 1.0 mg/kg | 
9 | CCCN(CCC)C1CCc2cccc(-c3cc(C)on3)c2C1 (stereo not shown) [Example 28, 2-Di-n-propylamino-8-(5-methylisoxazol-3-yl)-1,2,3,4-tetrahydronaphthalene] | 3.8 nM | > 1.0 mg/kg | > 1.0 mg/kg | 
10 | CCCN(CCC)C1CCc2cccc(-c3cc[nH]n3)c2C1 (stereo not shown) [Example 33, 2-Di-n-propylamino-8-(pyrazol-3-yl)-1,2,3,4-tetrahydronaphthalene] | 4.9 nM | > 1.0 mg/kg | > 1.0 mg/kg | 
